ChEMBL document CHEMBL1151875, “Design and synthesis of a novel tyrosine kinase inhibitor template” (Bioorg Med Chem, 2009)

Key:
[1] = target: ALK tyrosine kinase receptor (Homo sapiens, UniProt Q9UM73); experiment: Inhibition of 6xHis-tagged human NPM-ALK expressed in insect cells
Insulin receptor = Insulin receptor (Homo sapiens, UniProt P06213); experiment: Inhibition of human recombinant IRK
[2] = target: Hepatocyte growth factor receptor (Homo sapiens, UniProt P08581); experiment: Inhibition of recombinant MET
Sequence of Hepatocyte growth factor receptor (P08581 whole entry): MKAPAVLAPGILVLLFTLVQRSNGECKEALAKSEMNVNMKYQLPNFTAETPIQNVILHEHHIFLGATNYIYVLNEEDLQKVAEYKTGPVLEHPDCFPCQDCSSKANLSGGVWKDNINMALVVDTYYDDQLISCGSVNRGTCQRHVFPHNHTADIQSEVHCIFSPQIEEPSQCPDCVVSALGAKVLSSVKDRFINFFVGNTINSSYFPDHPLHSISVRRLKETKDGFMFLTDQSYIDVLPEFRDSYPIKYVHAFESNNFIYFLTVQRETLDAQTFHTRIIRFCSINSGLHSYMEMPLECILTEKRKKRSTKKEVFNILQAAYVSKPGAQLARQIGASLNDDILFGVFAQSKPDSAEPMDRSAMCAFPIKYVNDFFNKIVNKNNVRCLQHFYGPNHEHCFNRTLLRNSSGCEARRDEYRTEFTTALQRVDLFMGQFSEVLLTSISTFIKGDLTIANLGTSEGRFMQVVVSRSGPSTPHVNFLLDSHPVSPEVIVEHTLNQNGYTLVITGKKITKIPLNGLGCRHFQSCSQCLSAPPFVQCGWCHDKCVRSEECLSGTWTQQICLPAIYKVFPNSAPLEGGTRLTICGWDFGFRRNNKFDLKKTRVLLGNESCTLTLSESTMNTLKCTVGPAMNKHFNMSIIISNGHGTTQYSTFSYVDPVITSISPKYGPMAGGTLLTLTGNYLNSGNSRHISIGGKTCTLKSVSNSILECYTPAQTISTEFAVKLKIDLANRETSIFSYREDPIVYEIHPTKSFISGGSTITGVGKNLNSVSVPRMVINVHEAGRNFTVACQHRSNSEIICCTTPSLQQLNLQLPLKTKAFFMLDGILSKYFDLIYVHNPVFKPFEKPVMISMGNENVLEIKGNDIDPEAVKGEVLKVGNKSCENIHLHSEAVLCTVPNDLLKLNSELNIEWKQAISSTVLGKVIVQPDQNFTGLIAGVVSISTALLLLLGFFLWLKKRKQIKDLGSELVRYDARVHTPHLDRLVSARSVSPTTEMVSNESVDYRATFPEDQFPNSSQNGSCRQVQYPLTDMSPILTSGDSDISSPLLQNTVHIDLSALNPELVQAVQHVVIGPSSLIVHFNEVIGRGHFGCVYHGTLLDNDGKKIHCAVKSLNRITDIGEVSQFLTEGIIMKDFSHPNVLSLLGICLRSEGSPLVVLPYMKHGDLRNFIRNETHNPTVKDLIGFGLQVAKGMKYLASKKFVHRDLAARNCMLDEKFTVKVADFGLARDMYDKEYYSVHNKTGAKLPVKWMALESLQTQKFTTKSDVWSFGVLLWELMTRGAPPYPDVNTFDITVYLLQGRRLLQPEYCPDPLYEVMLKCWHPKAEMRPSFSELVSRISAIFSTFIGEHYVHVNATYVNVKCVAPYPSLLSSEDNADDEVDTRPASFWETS

[3] = target: Tyrosine-protein kinase JAK2 (Homo sapiens, UniProt O60674); experiment: Inhibition of recombinant JAK2
[4] = target: Insulin-like growth factor 1 receptor (Homo sapiens, UniProt P08069); experiment: Inhibition of recombinant IGFR1
Sequence of Insulin-like growth factor 1 receptor (P08069 31-736 limits assumed): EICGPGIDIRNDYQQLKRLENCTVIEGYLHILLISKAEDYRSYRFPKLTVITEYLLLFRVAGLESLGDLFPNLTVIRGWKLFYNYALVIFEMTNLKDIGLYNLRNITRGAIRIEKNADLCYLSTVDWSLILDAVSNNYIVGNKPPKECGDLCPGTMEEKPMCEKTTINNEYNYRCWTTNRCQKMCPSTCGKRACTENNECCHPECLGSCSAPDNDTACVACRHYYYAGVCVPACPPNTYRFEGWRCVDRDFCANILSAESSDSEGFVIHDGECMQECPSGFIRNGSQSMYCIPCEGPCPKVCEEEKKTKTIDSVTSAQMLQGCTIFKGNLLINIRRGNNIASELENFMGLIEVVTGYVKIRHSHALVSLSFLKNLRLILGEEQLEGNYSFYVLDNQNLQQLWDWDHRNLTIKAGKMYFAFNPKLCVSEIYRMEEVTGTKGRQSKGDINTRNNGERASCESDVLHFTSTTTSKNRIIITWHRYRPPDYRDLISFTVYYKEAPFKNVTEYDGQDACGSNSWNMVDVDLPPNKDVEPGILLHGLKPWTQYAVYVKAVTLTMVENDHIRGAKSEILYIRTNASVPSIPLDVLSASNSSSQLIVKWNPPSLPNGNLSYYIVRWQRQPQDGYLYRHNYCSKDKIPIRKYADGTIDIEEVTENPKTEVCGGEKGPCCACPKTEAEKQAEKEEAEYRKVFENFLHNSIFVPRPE
Sequence of Insulin-like growth factor 1 receptor (P08069 741-1367 limits assumed): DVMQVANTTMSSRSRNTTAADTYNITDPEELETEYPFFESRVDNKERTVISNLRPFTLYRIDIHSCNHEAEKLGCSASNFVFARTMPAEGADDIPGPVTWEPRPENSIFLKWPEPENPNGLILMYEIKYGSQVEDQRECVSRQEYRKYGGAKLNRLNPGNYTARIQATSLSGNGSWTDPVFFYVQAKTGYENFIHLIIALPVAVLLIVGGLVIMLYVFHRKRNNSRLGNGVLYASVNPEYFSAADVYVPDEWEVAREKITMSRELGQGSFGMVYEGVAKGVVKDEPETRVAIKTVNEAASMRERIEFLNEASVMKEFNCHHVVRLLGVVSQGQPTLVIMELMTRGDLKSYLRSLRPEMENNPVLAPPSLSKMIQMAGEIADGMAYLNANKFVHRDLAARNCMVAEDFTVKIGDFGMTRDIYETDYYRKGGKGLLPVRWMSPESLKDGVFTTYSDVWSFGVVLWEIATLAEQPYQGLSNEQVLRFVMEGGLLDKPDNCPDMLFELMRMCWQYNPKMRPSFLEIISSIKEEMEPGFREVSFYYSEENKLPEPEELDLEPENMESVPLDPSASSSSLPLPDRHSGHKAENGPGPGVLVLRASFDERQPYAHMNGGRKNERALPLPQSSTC

Sequence of Insulin receptor (P06213 28-758 limits assumed): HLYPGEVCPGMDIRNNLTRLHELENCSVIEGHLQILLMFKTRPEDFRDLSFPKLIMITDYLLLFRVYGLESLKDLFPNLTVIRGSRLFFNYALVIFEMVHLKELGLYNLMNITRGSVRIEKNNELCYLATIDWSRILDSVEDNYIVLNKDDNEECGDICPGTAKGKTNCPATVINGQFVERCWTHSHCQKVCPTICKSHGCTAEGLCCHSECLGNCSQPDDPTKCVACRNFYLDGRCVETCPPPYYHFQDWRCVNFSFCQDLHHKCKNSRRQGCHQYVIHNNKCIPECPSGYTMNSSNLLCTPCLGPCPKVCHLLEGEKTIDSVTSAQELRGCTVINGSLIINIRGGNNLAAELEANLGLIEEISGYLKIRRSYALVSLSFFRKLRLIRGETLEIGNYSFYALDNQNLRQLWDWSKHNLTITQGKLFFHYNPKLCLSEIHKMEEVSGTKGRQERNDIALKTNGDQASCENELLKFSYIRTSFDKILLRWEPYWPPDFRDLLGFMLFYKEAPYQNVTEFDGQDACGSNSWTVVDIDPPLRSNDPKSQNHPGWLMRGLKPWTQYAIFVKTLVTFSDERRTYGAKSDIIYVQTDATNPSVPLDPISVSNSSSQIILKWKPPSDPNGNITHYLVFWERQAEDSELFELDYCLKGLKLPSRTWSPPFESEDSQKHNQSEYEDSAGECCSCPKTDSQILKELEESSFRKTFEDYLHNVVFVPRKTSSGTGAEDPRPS
Sequence of Insulin receptor (P06213 763-1382 limits assumed): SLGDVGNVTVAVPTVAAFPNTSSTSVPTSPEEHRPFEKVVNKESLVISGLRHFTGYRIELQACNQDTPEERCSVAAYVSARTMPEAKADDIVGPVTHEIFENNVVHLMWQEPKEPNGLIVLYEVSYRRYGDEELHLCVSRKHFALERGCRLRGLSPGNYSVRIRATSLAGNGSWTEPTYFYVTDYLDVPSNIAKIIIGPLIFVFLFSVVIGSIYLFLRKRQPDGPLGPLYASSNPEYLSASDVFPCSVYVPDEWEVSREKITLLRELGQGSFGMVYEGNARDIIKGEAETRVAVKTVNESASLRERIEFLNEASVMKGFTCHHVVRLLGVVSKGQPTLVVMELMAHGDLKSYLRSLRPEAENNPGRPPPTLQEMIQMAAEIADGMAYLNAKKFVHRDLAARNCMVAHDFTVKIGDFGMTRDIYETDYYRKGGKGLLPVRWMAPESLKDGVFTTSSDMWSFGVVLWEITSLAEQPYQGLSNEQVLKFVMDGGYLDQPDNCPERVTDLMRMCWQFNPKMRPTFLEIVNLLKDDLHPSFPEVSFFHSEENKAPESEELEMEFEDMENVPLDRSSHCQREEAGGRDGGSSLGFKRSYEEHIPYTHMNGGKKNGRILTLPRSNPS

SMILES	IC50 [1] [µM]	IC50 (Insulin receptor) [µM]	IC50 [2] [µM]	IC50 [3] [µM]	IC50 [4] [µM]
Oc1ccc(CCN2CCc3c([nH]c4ccc(Br)cc34)-c3c(I)ccnc32)cc1	6.2	11.1	9.7	–	–
Oc1ccc(CCN2CCc3c([nH]c4ccc(Br)cc34)-c3c2ccnc3Cl)cc1	7.1	> 40	12.5	–	–
Cc1cc(Cl)c2c(n1)N(CCc1ccccc1)CCc1c-2[nH]c2ccccc12	11.8	19.8	12.4	> 40	12.6
C[C@@H](c1ccccc1)N1CCc2c([nH]c3ccc(Br)cc23)-c2c(I)ccnc21	8.3	> 40	> 40	–	–
Clc1nccc2c1-c1[nH]c3ccc(Br)cc3c1CCN2CCc1c[nH]c2ccccc12	9.3	> 40	> 40	–	–
Brc1ccc2[nH]c3c(c2c1)CCN(CC(c1ccccc1)c1ccccc1)c1nccc(I)c1-3	5	> 40	8.6	–	–
Clc1nccc2c1-c1[nH]c3ccc(Br)cc3c1CCN2CC(c1ccccc1)c1ccccc1	> 40	> 40	> 40	–	–
Cc1cc2c(c(=O)[nH]1)-c1[nH]c3ccccc3c1CCN2CCc1ccccc1	18	15.6	19.7	16.9	11.8

Further lines, results first:

IC50 [1] [µM]	IC50 (Insulin receptor) [µM]	IC50 [2] [µM]	IC50 [3] [µM]	IC50 [4] [µM]	SMILES
5.8	11.9	12.9	–	–	C[C@@H](c1ccccc1)N1CCc2c([nH]c3ccc(Br)cc23)-c2c1ccnc2Cl
5.1	3.5	5.5	5.1	4.5	COc1nc(C)cc2c1-c1[nH]c3cc(N4CCN(C)CC4)ccc3c1CCN2CCc1ccccc1
21.3	30.5	26.1	33.5	24.7	Cc1cc2c(c(Cl)n1)-c1[nH]c3ccccc3c1CCN2CCc1ccccc1
> 40	> 40	> 40	> 40	> 40	COc1cc(C)nc2c1-c1[nH]c3ccccc3c1CCN2CCc1ccccc1
> 40	> 40	> 40	> 40	> 40	COc1nc(C)cc2c1-c1[nH]c3ccccc3c1CCN2CCc1ccccc1
